# Article PMC9098912, “Molecular basis for inhibiting human glucose transporters by exofacial inhibitors” (Nature Communications, 2022)
# “And” between values parts separate entries of the source, which are not always exact repeats. Identical values can stand only once.
# Tests used:
# [1] = biological target: T1, human glucose transporter GLUT1(N45T) (Homo sapiens, UniProt P11166, N45T); test: Proteoliposome-based counterflow assay, inhibition of D-[2-3H]-glucose transport; format: biochemical; settings: 100 μM inhibitor; for Figure S1c: transport activity in presence of inhibitor (value1-3) / Inhibition of glucose uptake: GLUT1; for Figure S1c: transport activity in presence of inhibitor (value1-3): 100 µM
# T1 construct: made in house
# T1 sequence (P11166 1-492 N45T): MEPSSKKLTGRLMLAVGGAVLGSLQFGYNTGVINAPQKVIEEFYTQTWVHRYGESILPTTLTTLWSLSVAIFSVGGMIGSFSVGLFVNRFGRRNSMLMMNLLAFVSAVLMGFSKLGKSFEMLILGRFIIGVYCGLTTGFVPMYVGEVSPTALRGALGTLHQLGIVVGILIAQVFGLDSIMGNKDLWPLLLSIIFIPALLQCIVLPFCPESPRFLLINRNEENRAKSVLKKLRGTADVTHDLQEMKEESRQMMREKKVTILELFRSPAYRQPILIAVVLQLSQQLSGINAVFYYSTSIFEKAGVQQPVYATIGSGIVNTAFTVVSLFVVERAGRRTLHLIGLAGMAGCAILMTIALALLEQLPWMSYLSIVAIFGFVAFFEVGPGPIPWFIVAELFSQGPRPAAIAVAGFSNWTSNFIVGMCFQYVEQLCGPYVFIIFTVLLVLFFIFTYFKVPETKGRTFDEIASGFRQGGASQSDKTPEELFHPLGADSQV
# Protocol: (§1) All mutants were generated by standard PCR-based strategy.
# (§2) All counterflow assays were performed at 25 °C. […] Liposome without protein was used as negative control.
# (§3) All experiments were repeated at least three times.
# [2] = biological target: T2, WT GLUT3 (Homo sapiens, UniProt P11169, N43T); test: Microscale thermophoresis (MST) binding assay; design: Figure 1e middle: MST binding curve, Mean / Figure 1e right: MST binding curve, Mean / Figure 2c: MST binding curve, Mean: unit not given here; settings: GLUT3, log [CCB]
# T2 construct: His10 (N); made in house; host or cells: Sf9 insect cells (baculovirus)
# T2 sequence (P11169 1-496 N43T): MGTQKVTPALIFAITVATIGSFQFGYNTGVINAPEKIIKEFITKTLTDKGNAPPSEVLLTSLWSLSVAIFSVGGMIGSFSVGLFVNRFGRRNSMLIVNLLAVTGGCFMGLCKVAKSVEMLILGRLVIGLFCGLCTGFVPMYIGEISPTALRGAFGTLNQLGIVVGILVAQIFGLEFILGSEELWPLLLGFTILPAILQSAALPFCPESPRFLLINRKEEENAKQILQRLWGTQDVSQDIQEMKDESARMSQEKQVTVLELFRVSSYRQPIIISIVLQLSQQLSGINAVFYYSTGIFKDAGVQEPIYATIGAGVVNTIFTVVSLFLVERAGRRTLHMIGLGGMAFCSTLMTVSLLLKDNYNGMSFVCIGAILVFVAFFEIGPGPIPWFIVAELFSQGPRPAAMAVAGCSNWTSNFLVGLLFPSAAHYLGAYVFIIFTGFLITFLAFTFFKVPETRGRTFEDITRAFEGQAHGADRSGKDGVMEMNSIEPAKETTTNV
# Protocol: as §1
# (§4) Inhibitors with serial dilutions were mixed with indicated protein. […] MST analyses were conducted on a Monolith NT. […] The MST data was analyzed by Monolith NT.115.
# [3] = biological target: T3, GLUT3exo (GLUT3 S64W and I305W) (Homo sapiens, UniProt P11169, I305W/N43T/S64W); test: biochemical; format: binding; settings: GLUT3 dTrp mutant, log [CCB]
# T3 construct: His10 (N); made in house; host or cells: Sf9 insect cells (baculovirus)
# Protocol: Following the same principle for the engineering of XylE-WW, we introduced two Trp substitutions, S64W and I305W, on the extracellular segments of TM2 and TM8 of GLUT3, respectively. This variant will be referred to as GLUT3exo hereafter (Fig. 1a). The two bulky substituents were expected to trap GLUT3 in an outward-facing conformation.
# as §1, §4
# [4] = biological target: T4, human GLUT3(N43T) (Homo sapiens, UniProt P11169, N43T); test: Proteoliposome-based counterflow assay, inhibition of D-[2-3H]-glucose transport; format: biochemical; settings: 100 μM inhibitor; for Figure S1d: transport activity in presence of inhibitor (value1-3): three independent experiments, 100 µM
# T4 construct: His10 (N); made in house; host or cells: Sf9 insect cells (baculovirus)
# T4 sequence (P11169 1-496 N43T): T2 sequence (P11169 1-496 N43T)
# Protocol: as §1, §2, §3
# [5] = biological target: E. coli (strain O157:H7) D-xylose:proton symporter XylE (Escherichia coli O157:H7, UniProt P0AGF5); settings: for Figure S1b: transport activity in presence of inhibitor (value1-3): 100 µM
# Protocol: The recombinant human glucose transporter GLUT1(N45T) and E. coli (strain O157:H7) D-xylose:proton symporter XylE were expressed and purified as described previously[17],[26]. […] In brief, the cDNA of human GLUT3 was cloned into a modified pFastBac vector (Invitrogen) fused with an N-terminal His10 tag. All mutants were generated by standard PCR-based strategy.
# E. coli polar lipids (Avanti) were dissolved, dried, and resuspended to a final concentration of 20 mg/ml with the KPM 6.5 buffer (50 mM potassium phosphate, 2 mM MgSO4; pH 6.5) supplemented with 50 mM D-glucose or xylose (Sigma). After freeze-and-thaw with liquid nitrogen, the liposomes were extruded through 0.4 μm polycarbonate membranes (Millipore) and incubated with 1% n-octyl-β-d-glucoside (β-OG; Anatrace) at 4 °C for 30 min. Purified protein was incubated with liposomes at a ratio of ~1:100 (w/w) for 60 min. Then β-OG was removed by incubating with Bio-Beads SM2 (Bio-Rad) overnight. The proteoliposomes were subject to freeze-and-thaw again and extruded through 0.4 μm polycarbonate membranes. The homogenized proteoliposomes were ultracentrifuged at 100,000 g at 4 °C for 1 h and rinsed twice with the ice cold KPM 6.5 buffer. Finally, the proteoliposomes were resuspended in the KPM 6.5 buffer to a final concentration of 100 mg/ml (phospholipids).
# All counterflow assays were performed at 25 °C. For each assay, an aliquot of 2 μl proteoliposomes was added into 98 μl KPM 6.5 buffer plus 1 μCi D-[2-^3H] glucose (specific radioactivity 23.4 Ci/mmol, PerkinElmer) or D-[^3H] xylose (20 Ci/mmol, American Radiolabeled Chemicals, Inc.). The final concentrations of the external D-[2-^3H] glucose and D-[^3H] xylose were 0.42 μM and 0.5 μM, respectively. Uptake of radio-labeled substrates was terminated at 30 s by rapidly filtering the solution through 0.22 μm GSTF filters (Millipore) and washed with 2.5 ml KPM 6.5 buffer. The filter was solubilized with 0.5 ml Optiphase HISAFE 3 (PerkinElmer) for 30 min for liquid scintillation counting with MicroBeta JET (PerkinElmer). Liposome without protein was used as negative control.
# For inhibition assays, an aliquot of 2 μL proteoliposome pre-incubated with 100 μM indicated inhibitors for 0.5 h on ice was added to 98 μL KPM buffer containing 1 μCi D-[2-^3H]-glucose or D-[^3H] xylose with 100 μM inhibitors. To determine the IC50 of the inhibitor, a series of concentrations of the inhibitor was applied as indicated.
# All experiments were repeated at least three times. Data for liposome-based counterflow assay were analyzed using GraphPad Prism 6.
# Sequence of E. coli (strain O157:H7) D-xylose:proton symporter XylE (P0AGF5 whole entry, the tested form may be a part): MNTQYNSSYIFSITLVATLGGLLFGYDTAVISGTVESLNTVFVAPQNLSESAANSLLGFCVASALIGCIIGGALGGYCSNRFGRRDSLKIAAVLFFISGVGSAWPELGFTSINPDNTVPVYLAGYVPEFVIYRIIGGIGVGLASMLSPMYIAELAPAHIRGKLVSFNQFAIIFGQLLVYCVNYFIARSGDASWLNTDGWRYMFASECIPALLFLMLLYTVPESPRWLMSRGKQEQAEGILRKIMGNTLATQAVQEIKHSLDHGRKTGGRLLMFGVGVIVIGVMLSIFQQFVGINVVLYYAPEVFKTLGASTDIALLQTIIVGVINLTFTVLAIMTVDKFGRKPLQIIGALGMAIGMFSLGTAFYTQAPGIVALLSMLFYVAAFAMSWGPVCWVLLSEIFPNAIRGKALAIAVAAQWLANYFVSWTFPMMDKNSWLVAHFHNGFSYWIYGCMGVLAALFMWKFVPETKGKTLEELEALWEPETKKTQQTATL
# T3 sequence (P11169 whole entry N43T/S64W/I305W): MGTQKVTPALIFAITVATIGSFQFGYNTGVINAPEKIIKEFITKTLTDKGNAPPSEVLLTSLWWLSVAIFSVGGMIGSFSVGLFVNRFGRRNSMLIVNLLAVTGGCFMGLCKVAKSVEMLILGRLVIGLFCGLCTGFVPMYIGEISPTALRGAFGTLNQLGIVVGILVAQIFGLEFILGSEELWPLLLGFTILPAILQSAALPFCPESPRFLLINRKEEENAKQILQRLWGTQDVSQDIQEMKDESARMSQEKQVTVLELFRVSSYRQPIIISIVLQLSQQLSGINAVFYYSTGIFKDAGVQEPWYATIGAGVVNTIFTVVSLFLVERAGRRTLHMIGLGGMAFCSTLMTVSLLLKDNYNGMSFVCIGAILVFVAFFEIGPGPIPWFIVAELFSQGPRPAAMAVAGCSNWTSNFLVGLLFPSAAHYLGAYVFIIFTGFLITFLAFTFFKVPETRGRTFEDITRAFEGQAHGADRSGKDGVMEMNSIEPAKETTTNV
compound,measurement,setting,value
"C=C1[C@@H](C)[C@H]2[C@H](Cc3ccccc3)NC(=O)[C@]23OC(=O)/C=C/[C@H](O)CCC[C@@H](C)C/C=C/[C@H]3[C@@H]1O [CCB, cytochalasin B]",Figure S1c: transport activity in presence of inhibitor (value1-3),[1]; three independent experiments,7.4821 and 5.9756
same,activity at 100 µM,"[1]; read-out: Figure S1c: transport activity in presence of inhibitor (value1-3), GLUT1, three independent experiments",5.88%
same,"Figure 1e middle: MST binding curve, Mean",[2]; M -5.20412,94.2771
same,"Figure 1e middle: MST binding curve, Mean",[2]; M -5.50515,91.6933
same,"Figure 1e middle: MST binding curve, Mean",[2]; M -5.80618,73.4039
same,"Figure 1e middle: MST binding curve, Mean",[2]; M -6.10721,45.8611
same,"Figure 1e middle: MST binding curve, Mean",[2]; M -6.40824,32.1651
same,"Figure 1e middle: MST binding curve, Mean",[2]; M -7.0103,19.0619
same,"Figure 1e middle: MST binding curve, Mean",[2]; M -7.31133,12.7467
same,"Figure 1e middle: MST binding curve, Mean",[2]; M -7.61236,11.0147
same,"Figure 1e middle: MST binding curve, Mean",[2]; M -7.91339,6.7796
same,"Figure 1e middle: MST binding curve, Mean",[2]; M -8.51545,9.6216
same,"Figure 1e middle: MST binding curve, Mean",[2]; M -8.81648,7.333
same,"Figure 1e middle: MST binding curve, Mean",[2]; M -9.11751,0.514
same,"Figure 1e middle: MST binding curve, Mean",[3]; M -3.69897,12.3879
same,"Figure 1e middle: MST binding curve, Mean",[3]; M -4,6.9876
same,"Figure 1e middle: MST binding curve, Mean",[3]; M -4.30103,10.2535
same,"Figure 1e middle: MST binding curve, Mean",[3]; M -4.60206,7.6812
same,"Figure 1e middle: MST binding curve, Mean",[3]; M -4.90309,5.043
same,"Figure 1e middle: MST binding curve, Mean",[3]; M -5.20412,1.714
same,"Figure 1e middle: MST binding curve, Mean",[3]; M -5.50515,6.889
same,"Figure 1e middle: MST binding curve, Mean",[3]; M -5.80618,3.628
same,"Figure 1e middle: MST binding curve, Mean",[3]; M -6.10721,6.7864
same,"Figure 1e middle: MST binding curve, Mean",[3]; M -6.40824,7.2964
same,"Figure 1e middle: MST binding curve, Mean",[3]; M -6.70927,7.035
same,"Figure 1e middle: MST binding curve, Mean",[3]; M -7.0103,6.292
same,"Figure 1e middle: MST binding curve, Mean",[3]; M -7.31133,16.166
same,"Figure 1e middle: MST binding curve, Mean",[3]; M -7.61236,24.9543
same,"Figure 1e middle: MST binding curve, Mean",[3]; M -7.91339,19.4149
same,"Figure 1e middle: MST binding curve, Mean",[3]; M -8.21442,19.7489
COC1OC(CO)C(O)C(O)C1OC(=O)c1cc(Cl)c(OCc2nc3ccccc3n2C(C)C)c(Cl)c1 (stereo not drawn) [SA2],Inhibition of glucose uptake,[4],almost completely abolished
same,Figure S1d: transport activity in presence of inhibitor (value1-3),[4],15.2946 and 13.6199 and 13.8419
same,Inhibition of glucose uptake,[1],almost completely abolished
same,Figure S1c: transport activity in presence of inhibitor (value1-3),[1]; three independent experiments,23.4003 and 23.4095 and 22.1495
same,Inhibition of xylose transport,[5],moderately inhibited
same,Figure S1b: transport activity in presence of inhibitor (value1-3),[5],58.0461 and 66.7656 and 51.1774
C#CCCC(=O)Nc1cccc(COc2c(Cl)cc(C(=O)OC3C(OC)OC(CO)C(O)C3O)cc2OC)c1 (stereo not drawn) [SA3],Inhibition of glucose uptake,[4],mildly inhibited
same,Figure S1d: transport activity in presence of inhibitor (value1-3),[4],34.7779 and 38.4924 and 41.7666
same,Inhibition of glucose uptake,[1],mildly inhibited
same,Figure S1c: transport activity in presence of inhibitor (value1-3),[1]; three independent experiments,52.3152 and 50.1788 and 49.4073
same,Figure S1b: transport activity in presence of inhibitor (value1-3),[5],88.5699 and 92.3449 and 87.2521
COc1c(Cl)c(OCc2ccccc2)c(Cl)c(C)c1C(=O)OC1C(OC)OC(CO)C(O)C1O (stereo not drawn) [SA4],Inhibition of glucose uptake,[4],almost completely abolished
same,Figure S1d: transport activity in presence of inhibitor (value1-3),[4],6.3677 and 8.1365 and 7.922
same,Inhibition of glucose uptake,[1],almost completely abolished
same,Figure S1c: transport activity in presence of inhibitor (value1-3),[1]; three independent experiments,12.2388 and 8.7146 and 10.3352
same,Figure S1b: transport activity in presence of inhibitor (value1-3),[5],106.928 and 95.1823 and 98.9097
CCOC(=O)c1c(C)c(Cl)c(OC(=O)c2c(C)c(Cl)c(O)c(Cl)c2OC)c(Cl)c1OC [SA5],Figure S1d: transport activity in presence of inhibitor (value1-3),[4],105.451 and 87.0011 and 100.662
same,Figure S1c: transport activity in presence of inhibitor (value1-3),[1]; three independent experiments,101.106 and 93.647 and 95.1991
same,Figure S1b: transport activity in presence of inhibitor (value1-3),[5],86.3087 and 90.0117 and 94.9979
COc1ccccc1N1CCN(c2ncnc3c2cnn3-c2cccc(CN)c2)CC1 [SA6],Inhibition of glucose uptake,[4],almost completely abolished
same,Figure S1d: transport activity in presence of inhibitor (value1-3),[4],8.1554 and 7.7188 and 4.7344
same,Inhibition of glucose uptake,[1],almost completely abolished
same,Figure S1c: transport activity in presence of inhibitor (value1-3),[1]; three independent experiments,5.6059 and 7.7469 and 6.8521
same,Figure S1b: transport activity in presence of inhibitor (value1-3),[5],95.2845 and 101.756 and 111.538
